# pIC50: −log10 of the molar value.
# Experiments:
# PRMT5 [1] = molecular target: T1, PRMT5 (Homo sapiens, UniProt O14744); test: PRMT5 IC50 assay in the presence of SAM as cofactor; format: biochemical
# T1 construct: purchased Viva (custom protein)
# Procedure, shortened: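 Three cofactor conditions tested for PRMT5 inhibition: none, MTA and SAM, each giving an IC50. For conversion to Ki, the MTA-condition IC50 is divided by 13.5 and the SAM-condition IC50 by 1.5, and the two Ki values are expressed as a SAM/MTA ratio.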
# PRMT5 [2] = molecular target: T1, PRMT5; test: PRMT5 IC50 assay with no cofactor; format: biochemical
# Procedure, shortened: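 Results given as IC50 (μM), from which Ki follows by dividing by 1.5 in the SAM condition or by 13.5 in the MTA condition. The ratio of SAM Ki to MTA Ki indicates MTA-cooperative preference.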
# PRMT5 [3] = molecular target: T1, PRMT5; test: PRMT5 IC50 assay in the presence of MTA as cofactor; format: biochemical; details: for pIC50: PRMT5, MTA as cofactor
# Procedure, shortened: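 Potency against PRMT5 is compared across cofactor states, where IC50 equals Ki×1.5 with SAM present and Ki×13.5 with MTA present.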
# HAP1 MTAP-intact = test: SDMA in-cell western assay, HAP1 MTAP-intact cell line; format: cell-based; details: Homo sapiens
# Procedure, shortened: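 Potency reflects cellular SDMA reduction, detected by in-cell western, in HAP1 cells with or without MTAP (endogenous expression versus null).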
# HAP1 MTAP-deleted = test: SDMA in-cell western assay, HAP1 MTAP-deleted cell line; format: cell-based; details: for pIC50: Homo sapiens, HAP1 MTAP-deleted cell line; for MTAP Intact/Deleted Ratio: IC50 ratio HAP1 MTAP-intact / HAP1 MTAP-deleted
# Procedure, shortened: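 These are IC50 values from an in-cell western measuring SDMA. The HAP1 cells used carry no MTAP, in contrast to the isogenic partner line with endogenous MTAP expression.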
# [4] = ratio between Ki in the presence of SAM and Ki in the presence of MTA
# [5] = ratio between the Ki in the presence of SAM and the Ki in the presence of MTA
# T1 sequence (O14744 whole entry): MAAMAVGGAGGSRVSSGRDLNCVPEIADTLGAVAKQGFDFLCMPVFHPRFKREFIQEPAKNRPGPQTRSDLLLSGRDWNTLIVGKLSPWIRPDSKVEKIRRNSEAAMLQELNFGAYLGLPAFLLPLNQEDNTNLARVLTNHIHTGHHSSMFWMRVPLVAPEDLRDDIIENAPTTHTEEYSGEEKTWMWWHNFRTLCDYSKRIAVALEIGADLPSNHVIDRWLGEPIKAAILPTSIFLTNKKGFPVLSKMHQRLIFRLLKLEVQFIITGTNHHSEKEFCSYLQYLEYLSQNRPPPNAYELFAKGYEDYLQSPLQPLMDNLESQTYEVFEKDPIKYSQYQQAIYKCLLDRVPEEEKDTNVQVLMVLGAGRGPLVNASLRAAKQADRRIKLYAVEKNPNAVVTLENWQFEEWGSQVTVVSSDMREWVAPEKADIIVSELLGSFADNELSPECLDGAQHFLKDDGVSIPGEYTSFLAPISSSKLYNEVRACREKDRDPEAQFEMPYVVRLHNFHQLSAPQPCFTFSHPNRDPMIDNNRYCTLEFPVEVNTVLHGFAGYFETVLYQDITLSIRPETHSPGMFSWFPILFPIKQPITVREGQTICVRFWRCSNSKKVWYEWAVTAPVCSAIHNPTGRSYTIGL
# T1 sequence (Q9BQA1 whole entry partner): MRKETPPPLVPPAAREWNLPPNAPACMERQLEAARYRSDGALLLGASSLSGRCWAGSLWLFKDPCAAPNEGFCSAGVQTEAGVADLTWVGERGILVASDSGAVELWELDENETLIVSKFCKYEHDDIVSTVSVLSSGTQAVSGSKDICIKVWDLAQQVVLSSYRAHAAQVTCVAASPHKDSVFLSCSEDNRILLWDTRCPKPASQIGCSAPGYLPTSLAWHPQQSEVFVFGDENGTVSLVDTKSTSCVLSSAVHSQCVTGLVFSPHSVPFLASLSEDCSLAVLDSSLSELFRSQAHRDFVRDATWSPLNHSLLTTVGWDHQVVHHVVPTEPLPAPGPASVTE
pIC50 (PRMT5 [1]),pIC50 (PRMT5 [2]; read-out: No Co-factor IC50),pIC50 (PRMT5 [3]),pIC50 (HAP1 MTAP-intact),pIC50 (HAP1 MTAP-deleted),pIC50 (PRMT5 [2]),Structure (SMILES),SAM/MTA Ratio (PRMT5 [3]; [4]),MTAP Intact/Deleted Ratio (HAP1 MTAP-deleted),SAM/MTA Ratio (PRMT5 [3]; [5])
5.30 to 6.30,≤ 5.30,5.30 to 6.30,≤ 5.00,5.00 to 6.00,,"O=C(NC[C@H](O)CN1CCc2c(ccc(OCc3cnco3)c2Cl)C1)c1cc(NC2COC2)nc(N2CCOCC2)n1 [Compound 298, (S)—N-(3-(5-chloro-6-(oxazol-5-ylmethoxy)-3,4-dihydroisoquinolin-2(1H)-yl)-2-hydroxypropyl)-2-morpholino-6-(oxetan-3-ylamino)pyrimidine-4-carboxamide]",A (a Ki ratio greater than or equal to 10 fold between the Ki in the presence of SAM and the Ki in the presence of MTA),C* (an IC50 ratio of less than 3 fold between the IC50 in the HAP1 MTAP-intact cell line and the HAP1 MTAP-deleted cell line),
5.30 to 6.30,≤ 5.30,6.30 to 7.30,≤ 5.00,≤ 5.00,,"O=C(NC[C@H](O)CN1CCc2c(ccc(OCc3cnco3)c2Cl)C1)c1ccnc(NC2CC(F)(F)C2)c1 [Compound 357, (S)—N-(3-(5-chloro-6-(oxazol-5-ylmethoxy)-3,4-dihydroisoquinolin-2(1H)-yl)-2-hydroxypropyl)-2-((3,3-difluorocyclobutyl)amino)isonicotinamide]",A (a Ki ratio greater than or equal to 10 fold between the Ki in the presence of SAM and the Ki in the presence of MTA),C* (an IC50 ratio of less than 3 fold between the IC50 in the HAP1 MTAP-intact cell line and the HAP1 MTAP-deleted cell line),
6.30 to 7.30,5.30 to 6.30,6.30 to 7.30,5.00 to 6.00,≤ 5.00,,"CC(C)(C)N1CCN(c2cc(C(=O)NC[C@H](O)CN3CCc4cc(OCc5cnco5)ccc4C3)cc(NC3CCC3)n2)CC1 [Compound 306, (S)-2-(4-(tert-butyl)piperazin-1-yl)-6-(cyclobutylamino)-N-(2-hydroxy-3-(6-(oxazol-5-ylmethoxy)-3N-dihydroisoquinolin-2(1H)-yl)propyl)isonicotinamide]",A (a Ki ratio greater than or equal to 10 fold between the Ki in the presence of SAM and the Ki in the presence of MTA),C* (an IC50 ratio of less than 3 fold between the IC50 in the HAP1 MTAP-intact cell line and the HAP1 MTAP-deleted cell line),
6.30 to 7.30,,6.30 to 7.30,≤ 5.00,≤ 5.00,≤ 5.30,Cc1c(OCc2cnco2)ccc2c1CCN(C[C@@H](O)CNC(=O)c1ccnc(NC3CN(C(=O)C(C)C)C3)c1)C2 [Compound 550],,C* (an IC50 ratio of less than 3 fold between the IC50 in the HAP1 MTAP-intact cell line and the HAP1 MTAP-deleted cell line),A (a Ki ratio greater than or equal to 10 fold between the Ki in the presence of SAM and the Ki in the presence of MTA)
6.30 to 7.30,,6.30 to 7.30,≤ 5.00,> 6.00,5.30 to 6.30,COCCN(C)c1cc(C(=O)NC[C@H](O)CN2CCc3c(ccc(OCc4ocnc4C)c3C)C2)cc(NC2CCN(C(C)=O)CC2)n1 [Compound 592],,A* (an IC50 ratio greater than or equal to 10 fold between the IC50 in the HAP1 MTAP-intact cell line and the HAP1 MTAP-deleted cell line),A (a Ki ratio greater than or equal to 10 fold between the Ki in the presence of SAM and the Ki in the presence of MTA)

# More lines, now with the values behind:
Structure (SMILES),pIC50 (PRMT5 [1]),pIC50 (PRMT5 [2]; read-out: No Co-factor IC50),pIC50 (PRMT5 [3]),pIC50 (HAP1 MTAP-intact),pIC50 (HAP1 MTAP-deleted),pIC50 (PRMT5 [2]),SAM/MTA Ratio (PRMT5 [3]; [4]),MTAP Intact/Deleted Ratio (HAP1 MTAP-deleted),SAM/MTA Ratio (PRMT5 [3]; [5])
"Cc1c(OCc2cnco2)ccc2c1CCN(C[C@@H](O)CNC(=O)c1cc(NC3CCC3)ncn1)C2 [Compound 376, 6-(cyclobutylamino)-N-[(2S)-2-hydroxy-3-{5-methyl-6-[(1,3-oxazol-5-yl)methoxy]-1,2,3,4-tetrahydroisoquinolin-2-yl}propyl]pyrimidine-4-carboxamide]",5.30 to 6.30,≤ 5.30,5.30 to 6.30,≤ 5.00,≤ 5.00,,A (a Ki ratio greater than or equal to 10 fold between the Ki in the presence of SAM and the Ki in the presence of MTA),C* (an IC50 ratio of less than 3 fold between the IC50 in the HAP1 MTAP-intact cell line and the HAP1 MTAP-deleted cell line),
"Cc1c(OCc2cnco2)cc(F)c2c1CCN(C[C@@H](O)CNC(=O)c1ccnc(NC3CCC3)c1)C2 [Compound 341, 2-(cyclobutylamino)-N-[(2S)-3-[8-fluoro-5-methyl-6-(oxazol-5-ylmethoxy)-3,4-dihydro-1H-isoquinolin-2-yl]-2-hydroxy-propyl]pyridine-4-carboxamide]",6.30 to 7.30,5.30 to 6.30,6.30 to 7.30,≤ 5.00,5.00 to 6.00,,A (a Ki ratio greater than or equal to 10 fold between the Ki in the presence of SAM and the Ki in the presence of MTA),B* (an IC50 ratio greater than or equal to 3 fold but lower than 10 fold between the IC50 in the HAP1 MTAP-intact cell line and the HAP1 MTAP-deleted cell line),
"CC(=O)N1CCC(Nc2cncc(C(=O)NC[C@H](O)CN3CCc4c(ccc(OCc5cnco5)c4C)C3)c2)CC1 [Compound 606, 5-[(1-acetylpiperidin-4-yl)amino]-N-[(2S)-2-hydroxy-3-{5-methyl-6-[(1,3-oxazol-5-yl)methoxy]-1,2,3,4-tetrahydroisoquinolin-2-yl}propyl]pyridine-3-carboxamide]",6.30 to 7.30,,6.30 to 7.30,≤ 5.00,5.00 to 6.00,5.30 to 6.30,,C* (an IC50 ratio of less than 3 fold between the IC50 in the HAP1 MTAP-intact cell line and the HAP1 MTAP-deleted cell line),A (a Ki ratio greater than or equal to 10 fold between the Ki in the presence of SAM and the Ki in the presence of MTA)
CC(=O)N1CCC(Nc2cc(C(=O)NC[C@H](O)CN3CCc4c(ccc(OCc5cnco5)c4C)C3)ccn2)CC1 [Compound 517],6.30 to 7.30,,6.30 to 7.30,≤ 5.00,5.00 to 6.00,5.30 to 6.30,,B* (an IC50 ratio greater than or equal to 3 fold but lower than 10 fold between the IC50 in the HAP1 MTAP-intact cell line and the HAP1 MTAP-deleted cell line),A (a Ki ratio greater than or equal to 10 fold between the Ki in the presence of SAM and the Ki in the presence of MTA)
"O=C(NC[C@H](O)CN1CCc2c(ccc(OCc3cnco3)c2Cl)C1)c1ccnc(NC2CCCCC2)c1 [Compound 420, (S)—N-(3-(5-chloro-6-(oxazol-5-ylmethoxy)-3N-dihydroisoquinolin-2(1H)-yl)-2-hydroxypropyl)-2-(cyclohexylamino)isonicotinamide]",6.30 to 7.30,5.30 to 6.30,6.30 to 7.30,≤ 5.00,≤ 5.00,,A (a Ki ratio greater than or equal to 10 fold between the Ki in the presence of SAM and the Ki in the presence of MTA),C* (an IC50 ratio of less than 3 fold between the IC50 in the HAP1 MTAP-intact cell line and the HAP1 MTAP-deleted cell line),
"Cc1ncoc1COc1ccc2c(c1C)CCN(C[C@@H](O)CNC(=O)c1cc(NC3COC3)nc(N3CCN(C(=O)C4CC4)CC3)n1)C2 [Compound 414, 2-(4-cyclopropanecarbonylpiperazin-1-yl)-N-[(2S)-2-hydroxy-3-{5-methyl-6-[(4-methyl-1,3-oxazol-5-yl)methoxy]-1,2,3,4-tetrahydroisoquinolin-2-yl}propyl]-6-[(oxetan-3-yl)amino]pyrimidine-4-carboxamide]",6.30 to 7.30,≤ 5.30,6.30 to 7.30,≤ 5.00,> 6.00,,A (a Ki ratio greater than or equal to 10 fold between the Ki in the presence of SAM and the Ki in the presence of MTA),A* (an IC50 ratio greater than or equal to 10 fold between the IC50 in the HAP1 MTAP-intact cell line and the HAP1 MTAP-deleted cell line),
"O=C(NC[C@H](O)CN1CCc2c(ccc(OCc3cnco3)c2Cl)C1)c1cccc(NC2CCC2)c1 [Compound 335, (S)—N-(3-(5-chloro-6-(oxazol-5-ylmethoxy)-3,4-dihydroisoquinolin-2(1H)-yl)-2-hydroxypropyl)-3-(cyclobutylamino)benzamide]",5.30 to 6.30,≤ 5.30,5.30 to 6.30,≤ 5.00,≤ 5.00,,A (a Ki ratio greater than or equal to 10 fold between the Ki in the presence of SAM and the Ki in the presence of MTA),C* (an IC50 ratio of less than 3 fold between the IC50 in the HAP1 MTAP-intact cell line and the HAP1 MTAP-deleted cell line),
"O=C(NC[C@H](O)CN1CCc2cc(OCc3cnco3)ccc2C1)c1cc(NC2CCCCC2)ncn1 [Compound 395, (S)-6-(cyclohexylamino)-N-(2-hydroxy-3-(6-(oxazol-5-ylmethoxy)-3,4-dihydroisoquinolin-2(1H)-yl)propyl)pyrimidine-4-carboxamide]",5.30 to 6.30,≤ 5.30,6.30 to 7.30,≤ 5.00,5.00 to 6.00,,A (a Ki ratio greater than or equal to 10 fold between the Ki in the presence of SAM and the Ki in the presence of MTA),,

# Source: patent publication US11986471B2, “Compounds and methods of use” (Tango Therapeutics, Inc., priority 2018, dated 2024)
